Reference: patent US20050096564A1, “Method of distributing skin care products” (priority 2001, published 2005)

Experiments:
[1] = Study 2: vitamin C concentration in ISF and serum of subjects taking oral vitamin supplements; type: in vivo, human; conditions: Study 2, Supplement Yes
From the text: The laser made four pores at each collection site.

[2] = in vivo
From the text: The studies included non-smoking, female subjects of good health over the age of 35 years and under the age 55 years with skin type of III or less by the Fitzpatrick Skin classification. […] Acceptable subjects were chronologically enrolled in the study following a randomization code describing what treatment would be applied to which dorsal forearm. […] The subject applied a blinded emulsion designated by a letter to one dorsal forearm and an alternative emulsion with a different designation to the opposite arm, twice per day, for three weeks. […] ISF was extracted from the dorsal forearm, volar upper arm, and serum at one week (“Week 2”) and three weeks after dosing (“Week 4”) and two weeks after the cessation of dosing (“Week 6”).
ISF was extracted from both the treatment site (dorsal forearm) as well as an adjacent, untreated site volar upper arm) following one week of therapy and three weeks of therapy. Subjects ended treatment at this point and returned for a final extraction two weeks later.
The ISF collection period lasted between three and six hours, typically four hours.

Vitamin C concentration, MEAN ([1]; Serum): 1.36
Vitamin C concentration, MEAN ([1]; Sun-exposed site ISF): 1.00
Vitamin C concentration, MEAN ([1]; Sun-protected site ISF): 1.00
Influence of topical application on levels at an adjacent, untreated site or the serum [2]: does not influence
Response of serum level to topical therapy [2]: did not respond
SMILES: O=C1O[C@H]([C@@H](O)CO)C(O)=C1O [Vitamin C, vitamin C]
